Here are results for 2 molecules from BindingDB's records for patent US11739090 (Jumbo Drug Bank, 2023).

The structures appear in SMILES notation.

Assay [1] deals with Tyrosine-protein kinase BTK (Homo sapiens, UniProt Q06187). Description: BTK Kinase Assay. The protocol:
(§1) 1. Reaction conditions: buffer conditions: 20 mM HEPES (pH 7.5), 10 mM MgCl2, 1 mM EGTA, 0.02% Brij35, 0.02 mg/mL BSA, 0.1 mm Na3VO4, 2 mm DTT, 1% DMSO.2. Reaction procedure:2.1. Preparing an indicator substrate in a freshly prepared reaction buffer 2.2. Delivering the desired cofactor to the above substrate solution 2.3. Delivering the indicated kinase to the substrate solution and gently mixing same 2.4. Delivering the compounds in DMSO to the kinase reaction mixture using acoustic technology (Echo550) 2.5. Initiating the reaction (final concentration of ATP: 5 μM) by delivering 33P-ATP (final specific activity: 0.01 μci/μL) to the reaction mixture 2.6. Incubating the kinase reaction at room temperature for 120 minutes 2.7. Recording the reaction on P81 ion exchange paper (Whatman #3698-915) 2.8. Washing the filter widely with 0.75% phosphoric acid 2.9. Measuring the radioactive phosphorylated substrate remaining on the filter paper. 3.Data analysis: the kinase activity data is expressed as the percentage of the remaining kinase activity in a test sample compared to a reaction with a carrier (dimethyl sulfoxide), and IC50 values and curve fitting are obtained using Prism4 software (GraphPad).

The target in assay [2] is T1, Tyrosine-protein kinase Tec (Homo sapiens, UniProt P42680).
T1 sequence (P42680 whole entry): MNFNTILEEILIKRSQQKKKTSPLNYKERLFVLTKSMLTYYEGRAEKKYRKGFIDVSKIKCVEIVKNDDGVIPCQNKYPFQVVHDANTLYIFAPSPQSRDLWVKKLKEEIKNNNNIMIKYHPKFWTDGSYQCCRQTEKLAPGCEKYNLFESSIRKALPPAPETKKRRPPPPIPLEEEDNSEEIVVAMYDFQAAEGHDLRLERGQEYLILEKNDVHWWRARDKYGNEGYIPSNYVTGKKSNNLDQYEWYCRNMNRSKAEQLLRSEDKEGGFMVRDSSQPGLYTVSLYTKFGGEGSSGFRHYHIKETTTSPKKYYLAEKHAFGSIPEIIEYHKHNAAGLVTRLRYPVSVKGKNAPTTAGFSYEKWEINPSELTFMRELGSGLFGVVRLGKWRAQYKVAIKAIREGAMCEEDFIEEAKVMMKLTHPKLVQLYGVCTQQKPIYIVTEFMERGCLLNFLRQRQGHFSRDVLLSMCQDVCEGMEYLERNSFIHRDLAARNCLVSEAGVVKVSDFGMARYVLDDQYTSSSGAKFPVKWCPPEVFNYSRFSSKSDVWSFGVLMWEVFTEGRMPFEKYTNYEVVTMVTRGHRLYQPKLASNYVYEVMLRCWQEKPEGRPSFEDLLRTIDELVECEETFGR

For assay [3], the target named is Epidermal growth factor receptor (Homo sapiens, UniProt P00533). Kind of assay: EGFR, ITK and TEC Kinase Assay. The protocol:
as §1, with “DMSO. 2.” for “DMSO.2.”, “ATP: 2 μM,” for “ATP:”, “μM and 5 μM respectively)” for “μM)”, “3. Data” for “3.Data”

Assay [4] deals with T2, Tyrosine-protein kinase ITK/TSK (Homo sapiens, UniProt Q08881).
T2 sequence (Q08881 whole entry): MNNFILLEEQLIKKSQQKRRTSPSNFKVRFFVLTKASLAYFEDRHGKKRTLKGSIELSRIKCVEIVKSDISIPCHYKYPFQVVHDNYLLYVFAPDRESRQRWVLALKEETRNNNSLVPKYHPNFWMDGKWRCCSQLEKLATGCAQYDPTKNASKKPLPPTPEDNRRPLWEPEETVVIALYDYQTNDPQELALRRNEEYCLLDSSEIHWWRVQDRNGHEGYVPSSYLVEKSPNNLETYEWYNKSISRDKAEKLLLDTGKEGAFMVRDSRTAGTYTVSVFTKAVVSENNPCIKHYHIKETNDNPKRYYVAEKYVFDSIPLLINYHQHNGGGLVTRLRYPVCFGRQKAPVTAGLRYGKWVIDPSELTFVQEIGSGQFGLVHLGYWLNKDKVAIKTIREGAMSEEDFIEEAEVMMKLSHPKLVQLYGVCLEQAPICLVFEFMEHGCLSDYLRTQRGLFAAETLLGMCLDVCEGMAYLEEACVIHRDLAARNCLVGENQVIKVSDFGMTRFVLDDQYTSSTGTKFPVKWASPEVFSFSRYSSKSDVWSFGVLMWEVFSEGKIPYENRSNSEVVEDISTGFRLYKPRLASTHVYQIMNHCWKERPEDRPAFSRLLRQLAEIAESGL

Epidermal growth factor receptor, sequence (P00533 whole entry): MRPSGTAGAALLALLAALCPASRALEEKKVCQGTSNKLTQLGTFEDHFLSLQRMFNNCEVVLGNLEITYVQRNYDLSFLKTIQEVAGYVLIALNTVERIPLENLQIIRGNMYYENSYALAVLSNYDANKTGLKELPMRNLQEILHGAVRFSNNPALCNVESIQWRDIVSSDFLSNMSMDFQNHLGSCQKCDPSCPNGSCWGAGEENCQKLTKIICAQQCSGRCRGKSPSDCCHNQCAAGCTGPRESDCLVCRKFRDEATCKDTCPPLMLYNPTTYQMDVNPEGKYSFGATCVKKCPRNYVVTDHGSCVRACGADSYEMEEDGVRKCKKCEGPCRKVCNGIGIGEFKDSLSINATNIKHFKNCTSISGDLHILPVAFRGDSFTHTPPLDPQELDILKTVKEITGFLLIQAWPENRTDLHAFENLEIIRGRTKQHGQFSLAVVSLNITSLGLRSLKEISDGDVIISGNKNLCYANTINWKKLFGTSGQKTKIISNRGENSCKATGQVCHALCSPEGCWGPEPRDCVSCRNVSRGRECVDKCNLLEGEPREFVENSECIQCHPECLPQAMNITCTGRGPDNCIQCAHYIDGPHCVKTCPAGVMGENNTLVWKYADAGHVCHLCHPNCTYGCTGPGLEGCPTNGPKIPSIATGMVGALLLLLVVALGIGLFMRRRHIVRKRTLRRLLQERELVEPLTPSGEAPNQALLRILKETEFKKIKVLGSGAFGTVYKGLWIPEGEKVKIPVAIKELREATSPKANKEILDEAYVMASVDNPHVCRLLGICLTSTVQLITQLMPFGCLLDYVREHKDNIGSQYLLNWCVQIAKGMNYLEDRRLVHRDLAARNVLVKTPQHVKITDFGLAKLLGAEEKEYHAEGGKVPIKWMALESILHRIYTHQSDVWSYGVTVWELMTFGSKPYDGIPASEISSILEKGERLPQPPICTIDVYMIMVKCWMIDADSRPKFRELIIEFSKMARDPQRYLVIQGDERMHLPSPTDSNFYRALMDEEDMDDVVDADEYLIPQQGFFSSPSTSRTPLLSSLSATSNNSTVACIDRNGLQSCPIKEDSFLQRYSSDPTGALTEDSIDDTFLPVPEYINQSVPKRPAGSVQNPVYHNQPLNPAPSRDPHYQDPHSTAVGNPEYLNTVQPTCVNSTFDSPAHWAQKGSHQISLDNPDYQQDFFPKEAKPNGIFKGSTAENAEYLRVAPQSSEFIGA
Tyrosine-protein kinase BTK, sequence (Q06187 whole entry): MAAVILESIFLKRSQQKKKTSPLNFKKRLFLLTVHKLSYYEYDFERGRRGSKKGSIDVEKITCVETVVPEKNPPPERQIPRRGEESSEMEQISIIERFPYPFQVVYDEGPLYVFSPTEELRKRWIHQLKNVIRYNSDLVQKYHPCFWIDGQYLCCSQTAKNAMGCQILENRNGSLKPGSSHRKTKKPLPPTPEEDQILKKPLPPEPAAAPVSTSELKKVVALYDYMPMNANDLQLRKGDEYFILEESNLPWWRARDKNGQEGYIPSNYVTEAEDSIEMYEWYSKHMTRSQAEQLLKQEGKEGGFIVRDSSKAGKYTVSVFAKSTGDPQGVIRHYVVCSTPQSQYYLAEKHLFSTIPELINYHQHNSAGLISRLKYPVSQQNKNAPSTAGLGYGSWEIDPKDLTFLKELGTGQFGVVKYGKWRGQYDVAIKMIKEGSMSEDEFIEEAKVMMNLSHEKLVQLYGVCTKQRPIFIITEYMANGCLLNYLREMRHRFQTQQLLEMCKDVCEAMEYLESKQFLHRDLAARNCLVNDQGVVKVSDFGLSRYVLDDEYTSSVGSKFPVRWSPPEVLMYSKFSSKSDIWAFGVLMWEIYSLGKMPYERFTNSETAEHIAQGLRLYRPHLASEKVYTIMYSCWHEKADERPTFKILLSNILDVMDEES

The term IC50 denotes the concentration that inhibits the measured activity by half. A high value points to a need for much substance. For the molecule `C=CC(=O)N1CCC[C@@H](c2nn(-c3ccc(Oc4ccccc4)cc3)c3c(N)nccc23)C1` [US11739090, Compound 7A], the IC50 in assay [1] turned out to be 0.73 nM; in assay [2], 3.39 nM; in assay [3], 14.5 nM; in assay [4], 42.2 nM.

With `C=CC(=O)N1CCC[C@H](c2nn(-c3ccc(Oc4ccccc4)cc3)c3c(N)nccc23)C1` [US11739090, Compound 7B], the IC50 in assay [1] came to 0.93 nM; in assay [2] it was 3.74 nM; in assay [3], 33.3 nM; in assay [4] it was 1450 nM.
